# Measured values as given in US10314816B2, “Antimicrobial compounds, compositions and methods of use thereof” (Wisconsin Alumni Research Foundation, priority 2012, dated 2019).
# Where two headings read alike, the source gives them in different places.
# Legend:
# C. crescentus CB15N [1] = experiment: Minimum biofilm inhibitory concentration (bMIC); type: cell-based, Caulobacter crescentus
# Experimental: (§1) Determination of the minimum biofilm inhibitory concentration of growth (bMIC) and biofilm eradication concentration (MBEC). Overnight cultures of C. crescentus and S. aureus were grown and diluted 100-fold into appropriate nutrient media. Aliquots of the diluted suspension were transferred into wells of 96-well plates (150 μL/well). 2-fold serial dilutions were performed for compound-containing wells. For every experiment, three replicates for each compound concentration tested were included. After transferring aliquots of the suspension, the plates were closed with specialized lids that have protruding pins (Nunc STP System), and the plates were sealed using Parafilm®. The plates were incubated in a static incubator at 30° C. (C. crescentus) or 37° C. (S. aureus) for 24 hours. After the cells had formed biofilms on the surface of the pins, the pins were rinsed by dipping them in M2 (C. crescentus) or PBS (S. aureus) solutions. To rinse the pins, clean, sterile 96-well plates were used (aliquots of 200 μL/well); each rinse lasted 10 sec. After washing away planktonic cells loosely bound to biofilms, the pins were inserted into a 96-well plate that was pre-aliquoted with nutrient media containing antibiotics (2-fold dilutions, a final volume of 150 μL/well). The plates were sealed with Parafilm®, and incubated for 17 hours, and the bMIC was measured at the end of the incubation by visual inspection. […] The plates were sealed with Parafilm®, incubated for 24 hours, and the MBEC was measured at the end of the incubation by visual inspection.
# (§2) Membrane-active compounds are also efficient at eradicating biofilm-associated cells (Table 2). […] To determine the efficacy of antibiotics against biofilms, the minimum biofilm inhibitory concentration (bMIC) and the minimum biofilm eradication concentration (MBEC) were measured. […] After 24 hours of exposure to compounds, the lowest concentration of antibiotic that inhibited planktonic cell growth in the wells (bMIC) was determined.
# C. crescentus CB15N [2] = experiment: Minimum stationary-bactericidal concentration (MSC); type: cell-based, Caulobacter crescentus; conditions: C. crescentus CB15N, stationary cells, 24 hours
# Experimental: (§3) Determination of the Minimum Stationary-Bactericidal Concentration.
# (§4) Cultures of C. crescentus (24 hour incubation) and S. aureus cells (5 day incubation) were grown from single colonies. Cells were collected by centrifugation (8500 rpm for 2.5 minutes) and re-suspended in M2 salt solution (for C. crescentus; 1.74 g/L Na2HPO4, 1.06 g/L KH2PO4, and 0.5 g/L NH4Cl) or phosphate-buffered saline (for S. aureus; PBS, Fisher Scientific). The centrifugation and re-suspension was repeated two more times. After the repeated washing steps, the cell suspension was diluted 10-fold to achieve approximately 10^8 cells/mL. Aliquots of the diluted cell suspension were transferred into wells of a 96-well plate (100 μL/well), and 2-fold serial dilutions were performed to test a range of antibiotic concentrations. The plate was sealed with Parafilm® and incubated for 24 hours at room temperature in the dark. After incubation, 50 μl was removed from each well to spread on nutrient agar plates (1.5% agar in PYE for C. crescentus, and LB for S. aureus). The colonies on each plate were counted after growing the cells for 1-2 days. For determining the kinetics of bactericidal activity of DCAP on stationary cultures, the washed cells were diluted by 100-fold in appropriate solutions and tested using a single concentration of the compound while including a DMSO control sample. Cell suspensions were kept in closed microcentrifuge tubes instead of the wells of 96-well plates. 100 μL of the suspensions was removed for plating at each time point. All MSC experiments were performed in static conditions.
# (§5) In addition to its activity against actively growing bacteria, DCAP kills cells in stationary phase (Table 3). This property was tested against C. crescentus and S. aureus. […] To ensure that bacteria were deprived of nutrients, the cells were grown into late stationary phase (i.e., 24 hours for C. crescentus and 5 days for S. aureus). These cells were collected, suspended in isotonic solutions devoid of amino acids or sugars, and treated with a small molecule (DMSO, DCAP, CCCP or ampicillin). Cell viability was measured over time by plating culture aliquots on non-selective, solid growth media. The minimum concentration of antibiotic required to completely eliminate colony formation was designated as the minimum stationary-bactericidal concentration (MSC). […] CCCP inhibited the proliferation of C. crescentus cells regardless of their physiological status. However, the MSC of CCCP for S. aureus was >300-fold higher than the MIC. This dramatic decrease in the effectiveness of CCCP in S. aureus may be due to changes in membrane composition as cells adjust their metabolism in nutrient-deprived conditions.
# S. aureus FRI 100 [3] = experiment: Minimum biofilm eradication concentration (MBEC); type: cell-based, Staphylococcus aureus; conditions: S. aureus FRI 100 biofilm
# Experimental: (§6) Determination of the minimum biofilm inhibitory concentration of growth (bMIC) and biofilm eradication concentration (MBEC). Overnight cultures of C. crescentus and S. aureus were grown and diluted 100-fold into appropriate nutrient media. Aliquots of the diluted suspension were transferred into wells of 96-well plates (150 μL/well). 2-fold serial dilutions were performed for compound-containing wells. For every experiment, three replicates for each compound concentration tested were included. After transferring aliquots of the suspension, the plates were closed with specialized lids that have protruding pins (Nunc STP System), and the plates were sealed using Parafilm®. The plates were incubated in a static incubator at 30° C. (C. crescentus) or 37° C. (S. aureus) for 24 hours. After the cells had formed biofilms on the surface of the pins, the pins were rinsed by dipping them in M2 (C. crescentus) or PBS (S. aureus) solutions. To rinse the pins, clean, sterile 96-well plates were used (aliquots of 200 μL/well); each rinse lasted 10 sec. After washing away planktonic cells loosely bound to biofilms, the pins were inserted into a 96-well plate that was pre-aliquoted with nutrient media containing antibiotics (2-fold dilutions, a final volume of 150 μL/well). The plates were sealed with Parafilm®, and incubated for 17 hours, and the bMIC was measured at the end of the incubation by visual inspection. After the bMIC run, the rinse steps were repeated to remove planktonic cells, and the pins were inserted into a 96-well plate that was pre-aliquoted with drug-free nutrient media (aliquots of 150 μL/well). The plates were sealed with Parafilm®, incubated for 24 hours, and the MBEC was measured at the end of the incubation by visual inspection.
# After performing bMIC experiments, biofilms growing on the pins of the lid were transferred to nutrient media devoid of antibiotics to measure the minimum concentration of antibiotic that prevented planktonic growth from biofilms in antibiotic-free nutrient media (MBEC). […]
# C. crescentus CB15N [4] = experiment: Minimum biofilm eradication concentration (MBEC); type: cell-based, Caulobacter crescentus
# Experimental: as §6
# After performing bMIC experiments, biofilms growing on the pins of the lid were transferred to nutrient media devoid of antibiotics to measure the minimum concentration of antibiotic that prevented planktonic growth from biofilms in antibiotic-free nutrient media (MBEC). MBEC indicates whether the exposure to antimicrobial agent used during the bMIC experiment sterilized biofilm-associated cells. […] CCCP was the only effective antibiotic against S. aureus biofilms. Since CCCP was not as effective as DCAP at killing stationary cells, it was hypothesized that this variability in efficacy of membrane-active drugs is in part caused by changes in membrane composition (i.e., membrane proteins and lipid content) at different developmental stages of bacterial cells. […]
# C. crescentus CB15N [5] = experiment: MIC of bacterial growth, macrodilution (Table 2); type: cell-based, Caulobacter crescentus; conditions: actively growing cells
# Experimental: Bacterial strains and growth conditions. Luria-Bertani (LB) media (10 g/L tryptone, 10 g/L NaCl, 5 g/L yeast extract, pH 7.2) was used to grow B. subtilis 168, S. aureus FRI100, and P. aeruginosa K1115 strains. For P. aeruginosa PAO1 and K1119 strains and two E. coli BW25113 strains, M8 minimal media (241 mg/L MgSO4, 4 mg/L glucose, 5 mg/L casamino acids, 12.8 g/L Na2HPO4.7H2O, 3 g/L KH2PO4, and 0.5 g/L NaCl) was used. PYE media (2 g/L peptone, 1 g/L yeast extract, 0.8 mM MgSO4, and 0.5 mM CaCl2) was used for culturing C. crescentus cells at 30° C. All cultures were grown at 37° C., except for C. crescentus (30° C.). All cultures were grown while shaking at 200 rpm.
# Determination of the minimum inhibitory concentration (MIC) of bacterial growth. The MIC of various organisms in liquid media was determined using the macrodilution method according to the NCCLS guidelines. For the starting inoculum, cultures were diluted to contain approximately 5×10^5 cells/mL in growth media. To create a two-fold dilution series for the macrodilution technique, each compound was added to the first culture tube (4 mL total volume) at the highest concentration. 2 mL of this culture was diluted into an equal volume of inoculated media (a two-fold dilution). The final volume for each culture was 2 mL.
# S. aureus FRI 100 [6] = experiment: Minimum stationary-bactericidal concentration (MSC); type: cell-based, Staphylococcus aureus; conditions: S. aureus FRI 100, stationary cells, 24 hours
# Experimental: as §3, §4, §5
# S. aureus FRI 100 [7] = experiment: Minimum biofilm inhibitory concentration (bMIC); type: cell-based, Staphylococcus aureus; conditions: S. aureus FRI 100 biofilm
# Experimental: as §1, §2
# E. coli BW25113 ΔtolC = experiment: MIC of DCAP analogs, LB media, macrodilution (CLSI); type: cell-based; conditions: Escherichia coli
# Experimental: Luria-Bertani (LB) media (10 g/L tryptone, 10 g/L NaCl, 5 g/L yeast extract, pH 7.0) was used to grow all the strains represented in Tables 5 and 6. All the cultures were grown at 37° C. All the E. coli strains were grown while shaking at 200 rpm and the clinical pathogens were statically incubated. […]
# Acinetobacter baumannii = experiment: MIC of DCAP analogs, LB media, microdilution (CLSI); type: cell-based; conditions: microdilution (Table 6)
# Experimental: (§7) Luria-Bertani (LB) media (10 g/L tryptone, 10 g/L NaCl, 5 g/L yeast extract, pH 7.0) was used to grow all the strains represented in Tables 5 and 6. All the cultures were grown at 37° C. All the E. coli strains were grown while shaking at 200 rpm and the clinical pathogens were statically incubated.
# (§8) For clinical pathogenic organisms including S. typhimurium, V. cholera, S. boydii, K pneumonia, E. aerogenes, A. baumannii, E. tarda, and M. morganii strains, liquid LB media in 96-well microplates (100 μL/well) and the microdilution method from the CLSI guidelines were used.
# Edwardsiella tarda = experiment: as above; type: cell-based; conditions: microdilution (Table 6)
# Experimental: as §7, §8
# Morganella morganii = experiment: as above; type: cell-based; conditions: microdilution (Table 6)
# Experimental: as §7, §8
# Shigella boydii = experiment: as above; type: cell-based; conditions: microdilution (Table 6)
# Experimental: as §7, §8
# Enterobacter aerogenes = experiment: as above; type: cell-based; conditions: Klebsiella aerogenes, microdilution (Table 6)
# Experimental: as §7, §8
# Salmonella typhimurium = experiment: as above; type: cell-based; conditions: Salmonella enterica, microdilution (Table 6)
# Experimental: as §7, §8
# Vibrio cholera = experiment: as above; type: cell-based; conditions: Vibrio cholerae
# Experimental: as §7, §8
# Klebsiella pneumonia = experiment: as above; type: cell-based; conditions: Klebsiella pneumoniae, microdilution (Table 6)
# Experimental: as §7, §8
# [8] = BW25113, read-out: MIC (ΔtolC E. coli)
structure (smiles),measurement,setting,value
"CC1(C)S[C@@H]2[C@H](NC(=O)[C@H](N)c3ccccc3)C(=O)N2[C@H]1C(=O)O [Amp, ampicillin]",bMIC,C. crescentus CB15N [1],100 µg/mL
same,MSC,C. crescentus CB15N [2],>400 µg/mL
same,MBEC,S. aureus FRI 100 [3],>200 µg/mL
same,MBEC,C. crescentus CB15N [4],>400 µg/mL
same,MBEC,C. crescentus CB15N [4]; listed as ampicillin,> 400 µM
same,MIC,C. crescentus CB15N [5],50 µg/mL
same,MSC,S. aureus FRI 100 [6],100 µg/mL
same,bMIC,S. aureus FRI 100 [7],0.8 µg/mL
OCC(CO)(CO)NC[C@@H](O)Cn1c2ccc(Cl)cc2c2cc(Cl)ccc21 [Compound 2],MIC,E. coli BW25113 ΔtolC; [8],20 µM
OCC(CO)(CO)NC[C@H](O)Cn1c2ccc(Cl)cc2c2cc(Cl)ccc21 [Compound 3],MIC,E. coli BW25113 ΔtolC; [8],20 µM
OCC(CO)(CO)NC[C@@H](O)Cn1c2ccccc2c2ccccc21 [Compound 4],MIC,E. coli BW25113 ΔtolC; [8],> 80 µM
OCC(CO)NCC(O)Cn1c2ccc(Cl)cc2c2cc(Cl)ccc21 (stereo not drawn) [Compound 5],MIC,E. coli BW25113 ΔtolC; [8],20 µM
CCC(CC)NCC(O)Cn1c2ccc(Cl)cc2c2cc(Cl)ccc21 (stereo not drawn) [Compound 6],MIC,E. coli BW25113 ΔtolC; [8],5 µM
CCCCCNCC(O)Cn1c2ccc(Cl)cc2c2cc(Cl)ccc21 (stereo not drawn) [Compound 7],MIC,E. coli BW25113 ΔtolC; [8],5 µM
CC(C)CCNCC(O)Cn1c2ccc(Cl)cc2c2cc(Cl)ccc21 (stereo not drawn) [Compound 8],MIC,Acinetobacter baumannii,12.5 µM
same,MIC,Edwardsiella tarda,25 µM
same,MIC,Morganella morganii,50 µM
same,MIC,Shigella boydii,25 µM
same,MIC,Enterobacter aerogenes,50 µM
same,MIC,Salmonella typhimurium,50 µM
same,MIC,Vibrio cholera,6.25 µM
same,MIC,Klebsiella pneumonia,50 µM
same,MIC,E. coli BW25113 ΔtolC; BW25113,2.5 µM
same,MIC,E. coli BW25113 ΔtolC; [8],2.5 µM
OC(CNC1CCCCC1)Cn1c2ccc(Cl)cc2c2cc(Cl)ccc21 (stereo not drawn) [Compound 9],MIC,Acinetobacter baumannii,100 µM
same,MIC,Edwardsiella tarda,200 µM
same,MIC,Morganella morganii,> 200 µM
same,MIC,Shigella boydii,200 µM
same,MIC,Enterobacter aerogenes,> 200 µM
same,MIC,Salmonella typhimurium,> 200 µM
same,MIC,Vibrio cholera,25 µM
same,MIC,Klebsiella pneumonia,> 200 µM
same,MIC,E. coli BW25113 ΔtolC; BW25113,2.5 µM
same,MIC,E. coli BW25113 ΔtolC; [8],2.5 µM
CCC(CC)CNCC(O)Cn1c2ccc(Cl)cc2c2cc(Cl)ccc21 (stereo not drawn) [Compound 10],MIC,Acinetobacter baumannii,25 µM
same,MIC,Edwardsiella tarda,12.5 µM
same,MIC,Morganella morganii,> 200 µM
same,MIC,Shigella boydii,25 µM
same,MIC,Enterobacter aerogenes,> 200 µM
same,MIC,Salmonella typhimurium,200 µM
same,MIC,Vibrio cholera,6.25 µM
same,MIC,Klebsiella pneumonia,> 200 µM
same,MIC,E. coli BW25113 ΔtolC; BW25113,2.5 µM
same,MIC,E. coli BW25113 ΔtolC; [8],2.5 µM
CC(C)(C)NCC(O)Cn1c2ccc(Cl)cc2c2cc(Cl)ccc21 (stereo not drawn) [Compound 11],MIC,E. coli BW25113 ΔtolC; [8],40 µM
OCC(CO)(CO)NCC(O)CN1CCc2cc(Cl)ccc21 (stereo not drawn) [Compound 12],MIC,E. coli BW25113 ΔtolC; [8],> 40 µM
CC(CO)(CO)NCC(O)Cn1c2ccc(Cl)cc2c2cc(Cl)ccc21 (stereo not drawn) [Compound 13],MIC,E. coli BW25113 ΔtolC; [8],40 µM
CCC(CO)(CO)NCC(O)Cn1c2ccc(Cl)cc2c2cc(Cl)ccc21 (stereo not drawn) [Compound 14],MIC,E. coli BW25113 ΔtolC; [8],20 µM
